# Measured values taken from PubChem BioAssay (NCI).
#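 Assay format: 96-well plates, 48-hour exposure. The concentration for full growth arrest is given as TGI.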
# Legend:
# Experiment in all cases: NCI tumour cell line growth inhibition, 48 h
# [1] = system: 786-0 renal
# [2] = system: A498 renal
# [3] = system: A549 NSCLC
# [4] = system: ACHN renal
# [5] = system: BT-549 breast
# [6] = system: CAKI-1 renal
# [7] = system: CCRF-CEM leukemia
# [8] = system: COLO 205 colon
# [9] = system: DU-145 prostate
# [10] = system: EKVX NSCLC
# [11] = system: HCT-116 colon
# [12] = system: HCT-15 colon
# [13] = system: HOP-62 NSCLC
# [14] = system: HOP-92 NSCLC
# [15] = system: HT29 colon
# [16] = system: IGROV1 ovarian
# [17] = system: K-562 leukemia
# [18] = system: KM12 colon
# [19] = system: LOX IMVI melanoma
# [20] = system: M14 melanoma
# [21] = system: MALME-3M melanoma
# [22] = system: MCF7 breast
# [23] = system: MDA-MB-231 breast
# [24] = system: MDA-MB-435
# [25] = system: MDA-N
# [26] = system: MOLT-4 leukemia
# [27] = system: NCI-H226 lung
# [28] = system: NCI-H23 lung
# [29] = system: NCI-H460 lung
# [30] = system: NCI-H522 lung
# [31] = system: NCI/ADR-RES ovarian
# [32] = system: OVCAR-3 ovarian
# [33] = system: OVCAR-4 ovarian
# [34] = system: OVCAR-5 ovarian
# [35] = system: OVCAR-8 ovarian
# [36] = system: PC-3 prostate
# [37] = system: RPMI-8226 leukemia
# [38] = system: RXF 393 renal
# [39] = system: SF-268 CNS
# [40] = system: SF-295 CNS
# [41] = system: SF-539 CNS
# [42] = system: SK-MEL-2 melanoma
# [43] = system: SK-MEL-28 melanoma
# [44] = system: SK-MEL-5 melanoma
# [45] = system: SK-OV-3 ovarian
# [46] = system: SN12C renal
# [47] = system: SNB-19 CNS
# [48] = system: SNB-75 CNS
# [49] = system: SR leukemia
# [50] = system: SW-620 colon
# [51] = system: T-47D breast
# [52] = system: TK-10 renal
# [53] = system: U251 CNS
# [54] = system: UACC-257 melanoma
# [55] = system: UACC-62 melanoma
# [56] = system: UO-31 renal
# [57] = system: HCC-2998 colon
# [58] = system: HL-60(TB) leukemia
structure (smiles),measurement,setting,value
CCOn1c(C2(CC3CCN(C(=O)c4ccccc4)CC3)OCCO2)cc2ccccc21,TGI,[1],30 µM
same,TGI,[2],26.1 µM
same,TGI,[3],32.4 µM
same,TGI,[4],27.9 µM
same,TGI,[5],34.5 µM
same,TGI,[6],30.2 µM
same,TGI,[7],31.7 µM
same,TGI,[8],36.3 µM
same,TGI,[9],31.9 µM
same,TGI,[10],40.1 µM
same,TGI,[11],29.2 µM
same,TGI,[12],42.3 µM
same,TGI,[13],28.3 µM
same,TGI,[14],23.5 µM
same,TGI,[15],34.2 µM
same,TGI,[16],31.7 µM
same,TGI,[17],38.2 µM
same,TGI,[18],30.9 µM
same,TGI,[19],30.4 µM
same,TGI,[20],33.6 µM
same,TGI,[21],33.2 µM
same,TGI,[22],30 µM
same,TGI,[23],30 µM
same,TGI,[24],27.4 µM
same,TGI,[25],30.1 µM
same,TGI,[26],31.3 µM
same,TGI,[27],20.4 µM
same,TGI,[28],40.6 µM
same,TGI,[29],27.1 µM
same,TGI,[30],35 µM
same,TGI,[31],33.9 µM
same,TGI,[32],30 µM
same,TGI,[33],29.9 µM
same,TGI,[34],37.4 µM
same,TGI,[35],29.2 µM
same,TGI,[36],26 µM
same,TGI,[37],28.1 µM
same,TGI,[38],31.2 µM
same,TGI,[39],35 µM
same,TGI,[40],30.5 µM
same,TGI,[41],68.1 µM
same,TGI,[42],32.2 µM
same,TGI,[43],27.7 µM
same,TGI,[44],24.6 µM
same,TGI,[45],45.3 µM
same,TGI,[46],30.9 µM
same,TGI,[47],30.9 µM
same,TGI,[48],34.6 µM
same,TGI,[49],22.5 µM
same,TGI,[50],35.7 µM
same,TGI,[51],56.2 µM
same,TGI,[52],24.7 µM
same,TGI,[53],29.9 µM
same,TGI,[54],23 µM
same,TGI,[55],23.4 µM
same,TGI,[56],26.9 µM
COc1ccc2c(c1)CC1=C(O2)c2ccc(OC)cc2OC1,TGI,[1],50.8 µM
same,TGI,[2],> 100 µM
same,TGI,[3],> 100 µM
same,TGI,[4],36.5 µM
same,TGI,[5],38.8 µM
same,TGI,[6],37.1 µM
same,TGI,[7],> 100 µM
same,TGI,[8],33.8 µM
same,TGI,[9],> 100 µM
same,TGI,[10],52.5 µM
same,TGI,[57],> 100 µM
same,TGI,[11],41.8 µM
same,TGI,[12],36.8 µM
same,TGI,[58],> 100 µM
same,TGI,[13],> 100 µM
same,TGI,[15],72.9 µM
same,TGI,[16],> 100 µM
same,TGI,[17],> 100 µM
same,TGI,[18],> 100 µM
same,TGI,[19],27.2 µM
same,TGI,[20],37.3 µM
same,TGI,[21],45.5 µM
same,TGI,[23],89.6 µM
same,TGI,[24],47.5 µM
same,TGI,[25],38.4 µM
same,TGI,[26],> 100 µM
same,TGI,[27],> 100 µM
same,TGI,[28],> 100 µM
same,TGI,[30],35.4 µM
same,TGI,[31],> 100 µM
same,TGI,[32],36.4 µM
same,TGI,[33],90.1 µM
same,TGI,[34],> 100 µM
same,TGI,[35],78.2 µM
same,TGI,[36],57 µM
same,TGI,[37],> 100 µM
same,TGI,[39],68.5 µM
same,TGI,[40],> 100 µM
same,TGI,[41],85.1 µM
same,TGI,[42],81.6 µM
same,TGI,[44],42.4 µM
same,TGI,[45],> 100 µM
same,TGI,[46],44.3 µM
same,TGI,[48],66.3 µM
same,TGI,[49],> 100 µM
same,TGI,[50],34.6 µM
same,TGI,[51],37.5 µM
same,TGI,[52],46.3 µM
same,TGI,[53],39.9 µM
same,TGI,[54],37.8 µM
same,TGI,[55],39.2 µM
same,TGI,[56],> 100 µM
Nc1c(C(=O)c2ccc(Cl)cc2)[nH]c(NCc2ccccc2)c1C(=S)Nc1ccccc1,TGI,[1],3.14 µM
same,TGI,[2],23 µM
same,TGI,[3],4.87 µM
same,TGI,[4],4.71 µM
same,TGI,[5],7.06 µM
same,TGI,[6],18.6 µM
same,TGI,[7],5.54 µM
same,TGI,[8],26.2 µM
same,TGI,[9],13.1 µM
same,TGI,[10],20.1 µM
same,TGI,[57],1.98 µM
same,TGI,[11],3.31 µM
same,TGI,[12],3.36 µM
same,TGI,[58],14 µM
same,TGI,[13],12.9 µM
same,TGI,[14],9.02 µM
same,TGI,[15],3.7 µM
same,TGI,[16],6.43 µM
same,TGI,[17],4.04 µM
same,TGI,[18],3.24 µM
same,TGI,[19],3.19 µM
same,TGI,[20],3.54 µM
same,TGI,[22],3.08 µM
same,TGI,[23],3.91 µM
same,TGI,[24],3.14 µM
same,TGI,[25],3.32 µM
same,TGI,[26],6.49 µM
same,TGI,[27],27.2 µM
same,TGI,[28],5.95 µM
same,TGI,[29],3.49 µM
same,TGI,[30],3.38 µM
same,TGI,[31],24.2 µM
same,TGI,[32],20.2 µM
same,TGI,[33],4.15 µM
same,TGI,[34],9.16 µM
same,TGI,[35],3.37 µM
same,TGI,[36],18.4 µM
same,TGI,[37],4.34 µM
same,TGI,[38],4.16 µM
same,TGI,[39],8.44 µM
same,TGI,[40],3.32 µM
same,TGI,[41],13.8 µM
same,TGI,[42],3.58 µM
same,TGI,[43],3.22 µM
same,TGI,[45],49.8 µM
same,TGI,[46],17 µM
same,TGI,[47],15.1 µM
same,TGI,[48],3.33 µM
same,TGI,[50],3.63 µM
same,TGI,[51],65.1 µM
same,TGI,[52],4.25 µM
same,TGI,[53],3.13 µM
same,TGI,[54],3.26 µM
same,TGI,[55],21 µM
same,TGI,[56],3.02 µM
CN1C(=O)C2(Cc3cn(C45CC67SSC(CO)(C(=O)N6C4Nc4ccccc45)N(C)C7=O)c4ccccc34)SSC1(CO)C(=O)N2C (stereo not drawn),TGI,[1],0.0283 µM
same,TGI,[4],0.0776 µM
same,TGI,[7],> 100 µM
same,TGI,[9],0.173 µM
same,TGI,[10],0.166 µM
same,TGI,[57],0.136 µM
same,TGI,[11],0.115 µM
same,TGI,[58],> 100 µM
same,TGI,[13],0.277 µM
same,TGI,[14],0.771 µM
same,TGI,[15],0.0164 µM
same,TGI,[16],0.107 µM
same,TGI,[17],> 100 µM
same,TGI,[18],0.577 µM
same,TGI,[20],0.0298 µM
same,TGI,[22],0.259 µM
same,TGI,[23],0.0494 µM
same,TGI,[25],0.0661 µM
same,TGI,[26],1.08 µM
same,TGI,[29],0.778 µM
same,TGI,[30],0.0137 µM
same,TGI,[32],0.215 µM
same,TGI,[33],0.0234 µM
same,TGI,[34],0.289 µM
same,TGI,[35],0.202 µM
same,TGI,[36],0.214 µM
same,TGI,[37],> 100 µM
same,TGI,[39],0.265 µM
same,TGI,[40],1.34 µM
same,TGI,[41],0.0738 µM
same,TGI,[42],0.288 µM
same,TGI,[43],0.505 µM
same,TGI,[45],1.56 µM
same,TGI,[46],0.0696 µM
same,TGI,[48],0.345 µM
same,TGI,[50],> 100 µM
same,TGI,[52],0.103 µM
same,TGI,[54],1.13 µM
same,TGI,[55],0.324 µM
same,TGI,[56],0.179 µM
